Source: EP1490333B1, “NEW ATORVASTATIN SALTS AND PHARMACEUTICAL COMPOSITIONS CONTAINING THEM” (Richter Gedeon Nyrt., priority 2002, dated 2003)
Where a name gives a salt, the structure may show the parent alone.

Experiments:
[1] = Specific surface of the salts; type: physicochemical
[2] = tested on: Caco-2 human epithelial cells; conditions: for absorption of atorvastatin: microtablets of the three basic salts placed on the mono layers, compared with each other, Figure 1
Method: The essence of the method is, that microtablets are pressed from the drug substances to be examined without adding auxiliaries. The microtablets are made under the same conditions with the same pressing force, therefor the rate of penetration through cell-layer is determined by the intrinsic features of the examined substances.
In the model the absorption of atorvastatin through human epithelial (Caco-2) mono cell-layer was measured in such a way, that the microtablets prepared from the test compounds were placed on the mono cell-layers in the vessels containing physiological saline, then the time dependent amount of the test substance, which passed through the mono cell-layer was determined from the saline solution of the other side of the mono cell-layer by chromatography.
During the experiments 4 µmol base equivalent amounts were placed on the mono cell-layers from the microtablets.
During the experiments the reference compounds were placed on the mono cell-layer (luminal side, which in vivo equals the inner side of the intestine) in solution, the amount of the test substance, which passed through the mono cell-layer (abluminal side, which in vivo equals the blood circulation) was determined by chromatography, then the absorption coefficient characteristic for the absorption of the compounds was calculated (the English abbreviation used in the literature: Papp value).
At the end of the absorption experiments the intactness of the epithelial mono cell-layers was microscopically checked after tainting with toluidine blue. The amount of the test and reference compounds in the samples was determined by HPLC.

[3] = in vivo; cited from earlier work

Row | SMILES | specific surface [1] [m^2/g] | absorption (penetration) of atorvastatin in Caco-2 model ([2]; compared with polymorph I (crystal form I) of hemi-calcium salt) | absorption of atorvastatin [2] | appearance of atorvastatin on the abluminal side of the mono cell-layers ([2]; microtablets, compared with microtablets of polymorph I of hemi-calcium salt, Figure 2) | part of the applied dose absorbed [3]
1 | CC(C)c1c(C(=O)Nc2ccccc2)c(-c2ccccc2)c(-c2ccc(F)cc2)n1CC[C@@H](O)C[C@@H](O)CC(=O)O.NCCCC[C@H](N)C(=O)O [atorvastatin L-lysine salt] | 1.1 | significantly better | no difference | significantly faster | –
2 | CC(C)c1c(C(=O)Nc2ccccc2)c(-c2ccccc2)c(-c2ccc(F)cc2)n1CC[C@@H](O)C[C@@H](O)CC(=O)O [atorvastatin hemi-calcium salt, reference compound] | 8.0 | – | – | – | –
3 | CC(C)c1c(C(=O)Nc2ccccc2)c(-c2ccccc2)c(-c2ccc(F)cc2)n1CC[C@@H](O)C[C@@H](O)CC(=O)O [atorvastatin hemi-calcium salt, (3R,5R)-7-[3-phenyl-4-[(phenylamino)carbonyl]-2-(4-fluorophenyl)-5-(1-methyl-ethyl)-pyrrol-1-yl]-3,5-dihydroxy-heptanoic acid] | – | – | – | – | about 30%
4 | CC(C)c1c(C(=O)Nc2ccccc2)c(-c2ccccc2)c(-c2ccc(F)cc2)n1CCC(O)CC(O)CC(=O)O.N=C(N)NCCCC(N)C(=O)O [L-arginine salt, Atorvastatin L-arginine salt] | – | – | no difference | – | –
